Experimental data published in publication PMC8708492, “Homing Peptide-Based Targeting of Tenascin-C and Fibronectin in Endometriosis” (Nanomaterials, 2021).

Experiments:
[1] = tested on: 12Z cells; assay: Binding of peptide-displaying T7 phages to cultured cells (plaque assay); set-up: species or system human; conditions: peptide displayed on T7 phage, 12Z cells in suspension, 4 °C, 1 h, washed, N = 3
Protocol: (§1) Peptide-displaying T7 bacteriophages were prepared by cloning nucleotide sequences coding for different peptides into phage genomic DNA to be expressed on the phage surface as C-terminal fusions to capsid protein. The complementary oligonucleotides were annealed, and the cloning was performed according to the manufacturer’s protocol using the T7Select® 415-1 Cloning Kit (Millipore, 70015-3, Merck KGaA, Darmstadt, Germany). Peptide-displaying phage clones were thereafter amplified in complementing host bacterial cells BLT5403 and purified with polyethylene glycol according to an established protocol.
(§2) Prior to phage addition, 12Z and HESC cells were detached, washed with PBS, and resuspended in 0.5% BSA containing DMEM. Phages expressing a single peptide of interest (5 × 10^7 PFU/mL) were added to 5 × 10^7 cells, wherein insertless phage was used as a negative control. Incubation with phage clones was carried out on a slowly rocking platform at 4 °C for 1 h. Cells were washed four times with 0.5% BSA containing DMEM to eliminate unbound phages. Finally, the cells together with bound phages were resuspended in 1% NP40 containing LB solution, and plaque assay was performed as described earlier. Briefly, the amount of phage in cell lysates was determined by titering using Escherichia coli strain BLT5615 in LB medium containing 2 mM IPTG.
(§3) Figure 1 Binding of peptide-phages to cultured 12Z and HESC cells. Cells were incubated with the different peptide-displaying phages at 4 °C for 1 h, washed, and phage binding quantified by plaque assay. The phage binding is represented as a fold over insertless phage. N = 3, error bars = ±SEM. *** p < 0.001 (compared with insertless phage).

[2] = tested on: HESC cells; assay: as above; set-up: species or system human; conditions: peptide displayed on T7 phage, HESC cells in suspension, 4 °C, 1 h, washed, N = 3
Protocol: as §1, §2, §3

Substance | phage binding, fold over insertless phage [1] | phage binding, fold over insertless phage [2]
AGRGRLVR (displayed on T7 phage) [PL3] | 4–6 fold | 4–6 fold
C * RGDKGPDC * (disulfide) [iRGD, disulfide-cyclised peptide targeting angiogenic αv integrins and NRP-1] | 3 fold | 9 fold
PPRRGLIKLKTS [PL1] | 13–16 fold | 13–16 fold
RPARPAR | low/background binding | ~ 2 fold
RTRLHTR [EM2, receptor unknown] | low/background binding | ~ 2 fold
VRRADNRPG [EM1, receptor CNGB3] | low/background binding | 
